Test results reported in patent US9669078B2, “PD-L1 based immunotherapy” (Herlev Hospital, priority 2011, dated 2017).
“Also recorded” adds a separate entry of the source. Where two headings read alike, the source gives them in different places.

Columns and labels:
[1] = test system: autologous matured DC (mDC); assay: 51Cr-release cytotoxicity assay, autologous matured DC; format: cell-based, human; details: mDC transfected by electroporation
Protocol: DC were generated from PBMC by adherence on culture dishes at 37° C. for 1-2 hr. in RPMI-1640. Adherent monocytes were cultured in RPMI-1640 supplemented with 10% fetal calf serum in the presence of IL-4 (250 U/ml) and GM-CSF (1000 U/ml) for 6 days. DC were matured by addition of […] (1000 U/ml), IL-6 (1000 U/ml) TNF-α (1000 U/ml) and PGE2 (1 ug/ml).
(§1) Conventional ^51Cr-release assays for CTL-mediated cytotoxicity were carried out as described in Andersen et al., J Immunol 1999. Target cells were T2-cells, HLA-A2^+ EBV transformed B-cell line (KIG-BCL), autologous matured DC (mDC), HLA-A2^+ melanoma cell lines (MM1312.07 and MM.909.06) with or without IFN-γ (100 U/ml) addition for 2 days. T2-cells and KIG-BCL were pulsed with PD-L1 recombinant protein (Sin θ Biological Inc.) for 3 hr. at 37° C. prior addition of chromium. Lysis of T2-cells was blocked using anti HLA-A2 FITC conjugated antibody (2 ug/100 ul, BD Biosciences).
(§2) Stealth siRNA duplex for targeted silencing of PD-L1 and recommended Stealth siRNA negative control duplex for medium GC content were obtained from Invitrogen (Invitrogen, Paisley, UK). The Stealth PD-L1 siRNA duplex consisted of the sense sequence 5′-[…]3′ (SEQ ID NO: 21) and the anti-sense sequence 5′-[…]-3′ (SEQ ID NO:22). For PD-L1 silencing experiments, mDC were transfected with PD-L1 siRNA using electroporation parameters.

[2] = test system: PD-L1 surface expression on mDC; assay: Flow cytometry of PD-L1 surface expression on mDC; format: cell-based, human; details: 24 hr after transfection; 0.05, 0.10 and 0.25 nmol
Protocol: as §2
(§3) Flow cytometry analysis was performed on a FACSCANTO II (BD Biosciences, San Jose Calif., USA) to determine PD-L1 surface expression on mDC before and after siRNA targeted silencing, T2-cells, KIG-BCL and HLA-A2^+ melanoma cell lines (MM1312.07 and MM.909.06) with or without IFN-γ treatment. Cells were washed in PBS/1% BSA and subsequently stained either with FITC- or PE-Cy5-conjugated anti-PD-L1 monoclonal antibody for 30 min on ice in PBS/1% BSA. Nonreactive isotype-matched antibody (BD Biosciences) was used as control. Fluorescence analyses were performed using FACSDiva software (BD Biosciences) and FlowJo software (Tree Star, Ashland Oreg., USA).

PBMC [3] = assay: IFN-γ ELISPOT assay; format: cell-based, human; details: for specific T-cell responses, IFN-γ ELISPOT: PBMC from HLA-A2+ cancer patients (breast cancer, melanoma, renal cell carcinoma) stimulated once with peptide in vitro
Excerpt: The ELISPOT assay was used to quantify peptide specific IFN-γ releasing effector cells as described previously (Andersen et al., 2001, Cancer Res. 61:869-872). In some experiments PBMC were stimulated once in vitro with peptide prior to analysis as described (McCutcheon et al., 1997, J Immunol Methods 210:149-166) to extend the sensitivity of the assay. Briefly, nitrocellulose bottomed 96-well plates (MultiScreen MAIP N45; Millipore) were coated overnight with IFN-γ capture mAb (Mabtech). The wells were washed, blocked by X-vivo medium and the effector cells (PBMC collected and when indicated stimulated as described above) were added in duplicates at different cell concentrations, with or without 10 μM peptide. The plates were incubated overnight. The following day, medium was discarded and the wells were washed prior to addition of the relevant biotinylated secondary Ab (Mabtech). The plates were incubated at room temperature (RT) for 2 hours, washed, and Avidin-enzyme conjugate (AP-Avidin; Calbiochem/Invitrogen Life Technologies) was added to each well. Plates were incubated at RT for 1 hour and the enzyme substrate NBT/BCIP (Invitrogen Life Technologies) was added to each well and incubated at RT for 5-10 min. Upon the emergence of dark purple spots, the reaction was terminated by washing with tap water. The spots were counted using the ImmunoSpot Series 2.0 Analyzer (CTL Analyzers).
(§4) In the present study the ELISPOT was performed according to the guidelines provided by CIP (http://cimt.eu/cimt/files/dl/cip_guidelines.pdf). In some experiments PBMC were stimulated once in vitro with peptide prior to analysis as described to extend the sensitivity of the assay. Briefly, nitrocellulose bottomed 96-well plates (MultiScreen MAIP N45; Millipore) were coated overnight with the relevant antibodies. The wells were washed, blocked by X-vivo medium and the effector cells were added if possible in triplicates otherwise in duplicates at different cell concentrations, with or without peptide. The plates were incubated overnight. The following day, medium was discarded and the wells were washed prior to addition of the relevant biotinylated secondary Ab (Mabtech), followed by the Avidin-enzyme conjugate (AP-Avidin; Calbiochem/Invitrogen Life Technologies) and finally the enzyme substrate NBT/BCIP (Invitrogen Life Technologies). The spots were counted using the ImmunoSpot Series 2.0 Analyzer (CTL Analyzers). Definition of an ELISPOT response was based on the guidelines and recommendations provided by CIP by an empirical or a statistical approach; the former implies setting a threshold to represent a biological response. […] The non-parametric Distribution free resampling (DFR) test gives a way of formally comparing antigen stimulated wells with negative control wells. As a minimum the ELISPOT assay must be performed at least in triplets. Furthermore, the non-parametric unpaired Mann-Whitney test was used to compare PD-L101-specific responders between cancer patients and healthy donors.

T2-cells = assay: 51Cr-release cytotoxicity assay, T2-cells; format: cell-based
Protocol: Conventional ^51Cr-release assays for CTL-mediated cytotoxicity were carried out as described elsewhere (Andersen et al., 1999). Target cells were T2 with and without PDL101 (FIG. 3a) and the HLA-A2+ breast cancer cell line the breast cancer cell line MDA-MB-231 (FIG. 3b) (available at the American Type Culture Collection (ATCC)).
as §1

[4] = test system: HLA-A2+ EBV transformed B-cell line (KIG-BCL); format: cell-based; details: 51Cr-release
Protocol: as §1

PBMC [5] = assay: TNF-α ELISPOT; format: cell-based, human; details: PBMC from IFN-γ-responding patients, triplicates
Protocol: In addition to determining the presence of specific T-cells using IFNγ as a marker, TNFα was also used as a marker. Thus, an ELISPOT assay was performed essentially as described above with the PDL101 peptide including a stimulation once in vitro with said peptide, except that TNFα antibodies were used in place of IFNγ antibodies. FIG. 2B show the results.
In the present study the ELISPOT was performed according to the guidelines provided by CIP (http://cimt.eu/cimt/files/dl/cip_guidelines.pdf). In some experiments PBMC were stimulated once in vitro with peptide prior to analysis as described to extend the sensitivity of the assay. Briefly, nitrocellulose bottomed 96-well plates (MultiScreen MAIP N45; Millipore) were coated overnight with the relevant antibodies. The wells were washed, blocked by X-vivo medium and the effector cells were added if possible in triplicates otherwise in duplicates at different cell concentrations, with or without peptide. The plates were incubated overnight. The following day, medium was discarded and the wells were washed prior to addition of the relevant biotinylated secondary Ab (Mabtech), followed by the Avidin-enzyme conjugate (AP-Avidin; Calbiochem/Invitrogen Life Technologies) and finally the enzyme substrate NBT/BCIP (Invitrogen Life Technologies). The spots were counted using the ImmunoSpot Series 2.0 Analyzer (CTL Analyzers). […]

PBMC [6] = assay: Granzyme B (GrB) ELISPOT; format: cell-based, human; details: PBMC from three melanoma patients (MM.03, MM.53, MM.135)
Protocol: as §4, with “As a minimum the ELISPOT assay must be performed at least in triplets. Furthermore, the non-parametric unpaired Mann-Whitney test was used to compare PD-L101-specific responders between cancer patients and healthy donors.” left out

HLA-A2 = assay: HLA peptide exchange technology and ELISA; format: binding, human; details: compared with high affinity epitopes HIV-1 pol476-484 and CMV pp65 pos495-503
Excerpt: To evaluate the affinity of the HLA-peptide complex a UV exchange method was used in combination with a sandwich ELISA as previously described (19).

[7] = test system: PD-L101-specific, CD8 T-cells among PBMC; assay: HLA-A2/PD-L101 tetramer staining by flow cytometry; format: cell-based, human; details: for PD-L1-tetramer positive cells: after three in vitro re-stimulations
Protocol: Two PD-L101-specific T cell culture were established. PBMC from a breast cancer patient (CM.21) and from a melanoma (MM.05) patient were stimulated with irradiated PD-L101-loaded autologous DC. The following day IL-7 and IL-12 (PeproTech, London, UK) were added. […] The day after peptide stimulation IL-2 (PeproTech, London, UK) was added.
For multimer/tetramer staining, tetramers coupled with PE and APC were prepared using MHC-peptide exchange technology. […] Dead cell marker 7-AAD-PerCP (BD Bioscience) added prior to FACS analysis.

[8] = test system: PD-L101-specific T-cell bulk culture; assay: CD107a staining of T-cell bulk culture after peptide addition; format: cell-based, human; details: peptide added directly to T-cell bulk culture, FACS
Excerpt: Subsequently, cells were stained with tetramer and surface markers and analysed FACSCANTO II (BD Biosciences, San Jose Calif., USA).

[9] = test system: HLA-A2+ melanoma cell line MM1312.07; assay: 51Cr-release cytotoxicity assay, MM1312.07; format: cell-based; details: IFN-γ (100 U/ml) for 2 days
Protocol: as §1

[10] = test system: HLA-A2+ melanoma cell line MM.909.06; assay: 51Cr-release cytotoxicity assay, MM.909.06; format: cell-based; details: IFN-γ (100 U/ml) for 2 days
Protocol: as §1

[11] = test system: PD-L1 surface expression on MM1312.07; assay: Flow cytometry of PD-L1 surface expression on MM1312.07; format: cell-based; details: FACS
Protocol: as §3

[12] = test system: PD-L1 surface expression on MM.909.06; assay: Flow cytometry of PD-L1 surface expression on MM.909.06; format: cell-based; details: FACS
Protocol: as §3

5′-CCUACUGGCAUUUGCUGAACGCAUU3′ (antisense AAUGCGUUCAGCAAAUGCCAGUAGG; listed as RNA, chemistry not given here) [PD-L1 siRNA]
killing of siRNA-transfected mDC by PD-L1-specific CTL cultures [1]: rescued the DC from being killed | PD-L1 protein surface expression on mDC after siRNA transfection [2]: reduced the level of PD-L1 protein expression

CLGVALTFI (PD-L1 peptide) [PDL111]
specific T-cell responses, IFN-γ ELISPOT (PBMC [3]): responses were detected

FMTYWHLLNAFTVTVPKDL (PD-L1 peptide) [PDLong1]
lysis of peptide- or protein-pulsed T2-cells by PD-L101-specific T-cell culture (T2-cells): take up, process and present | lysis of pulsed KIG-BCL by PD-L101-specific CTL [4]: recognized

ILKEPVHGV [HIV-1 pol476-484, reference compound]
lysis of peptide- or protein-pulsed T2-cells by PD-L101-specific T-cell culture (T2-cells): no cytotoxic was observed | lysis of pulsed KIG-BCL by PD-L101-specific CTL [4]: not killed

LLNAFTVTV (PD-L1 peptide) [PD-L101]
specific T-cell responses, IFN-γ ELISPOT (PBMC [3]): Frequent and strong responses were detected | specific T-cell responses, IFN-γ ELISPOT (PBMC [3]; listed as PDL101): responses were detected | PD-L101-specific cells, IFN-γ ELISPOT directly ex vivo (PBMC [3]; PBMC of responding patients, without peptide stimulation in vitro): significant responses; also recorded: readily detectable ex vivo in selected patients | TNF-α release by PD-L101-specific cells, TNF-α ELISPOT (PBMC [5]): released TNF-α | GrB ELISPOT responses (DFR test) (PBMC [6]): could be detected in the three patients; also recorded: significant responses against PD-L101 in two of the patients | frequency of PD-L101-specific, GrB releasing cells (PBMC [6]): 100-300 PD-L101-specific, GrB releasing cells per 5×10^5 PBMC | binding to HLA-A2 (HLA-A2): comparable to the high-affinity control epitope | PD-L1-reactive T cells by HLA-A2/PD-L101 tetramer, directly ex vivo ([7]; PBMC from two PD-L101-responding patients (CM.21, MM.05)): detectable ex vivo in both patients | PD-L1-tetramer positive cells ([7]; T-cells from a breast cancer patient): 13.52% | PD-L1-tetramer positive cells ([7]; T-cells from a malignant melanoma patient): 0.17% | frequency of PD-L1-specific T-cells by tetramer after one in vitro peptide stimulation ([7]; both patients (CM.21, MM.05)): markedly increased the frequency | HLA-A2/PD-L101-tetramer+, CD107a+ cells [8]: distinct populations | lysis of peptide- or protein-pulsed T2-cells by PD-L101-specific T-cell culture (T2-cells): killed; also recorded: lysed T2-cells pulsed with PD-L101 efficiently | lysis of peptide- or protein-pulsed T2-cells by PD-L101-specific T-cell culture (T2-cells; listed as PDL01): efficiently presented | lysis of pulsed KIG-BCL by PD-L101-specific CTL [4]: recognized

PD-L1 protein: PD-L1 recombinant protein (Sin θ Biological Inc.), full length, used to pulse T2-cells and KIG-BCL
lysis of peptide- or protein-pulsed T2-cells by PD-L101-specific T-cell culture (T2-cells): recognized and killed | lysis of pulsed KIG-BCL by PD-L101-specific CTL [4]: not recognized

VILGAILLCL (PD-L1 peptide) [PDL114]
specific T-cell responses, IFN-γ ELISPOT (PBMC [3]): responses were detected

VILGAILLCLGVALTFIFRLRKG (PD-L1 peptide) [PDLong2]
lysis of pulsed KIG-BCL by PD-L101-specific CTL [4]: not killed

B1: IFN-γ: cytokine added (100 U/ml, 2 days) to melanoma cell lines (protein, UniProt P01579 24-161, looked up)
Interferon gamma: QDPYVKEAENLKKYFNAGHSDVADNGTLFLGILKNWKEESDRKIMQSQIVSFYFKLFKNFKDDQSIQKSVETIKEDMNVKFFNSNKKKRDDFEKLTNYSVTDLNVQRKAIHELIQVMAELSPAAKTGKRKRSQMLFRG
effect of IFN-γ treatment on killing of MM1312.07 [9]: increased the killing of both melanoma cell lines | effect of IFN-γ treatment on killing of MM.909.06 [10]: increased the killing of both melanoma cell lines | effect of IFN-γ treatment on PD-L1 expression, MM1312.07 [11]: increased the expression of PD-L1 in both cell lines | effect of IFN-γ treatment on PD-L1 expression, MM.909.06 [12]: increased the expression of PD-L1 in both cell lines
